One test deals with senescent IMR90 cells. Put plainly: Senescence assay: viability of senescent IMR90 cells (CellTiter-Glo or XTT). Type of test: cell-based. As to conditions: Homo sapiens, IMR-90; chemotherapy-induced senescent IMR90 cells; compounds incubated 24-72 hours; viability relative to untreated control; read-out: IMR90_SEN IC50 (Absolute IC50 average). The method, then: (§1) Cells were maintained in DMEM media (high glucose, 4 mM L-glutamine, no sodium pyruvate) supplemented with 10% fetal bovine serum in a humidified incubator at 37° C. with 5% carbon dioxide. Senescence was induced via treatment with a sublethal concentration of chemotherapy (bleomycin, gemcitabine, doxorubicin, 5-fluorouridine, mitomycin C), followed by a rest period without chemotherapy similarly to what is reported by others in the field (e.g., Aoshiba et al., 2003 Eur Respir J 22:436-443). Senescence was qualified by low EdU (5-ethynyl-2′-deoxyuridine) incorporation and high SA-β-Gal (senescence-associated beta-galactosidase) staining compared to proliferating untreated cells. Senescent cells were plated into 96-well plates at a density of 5-15,000 cells/well. The next day, compounds were added in duplicate across ten different concentrations spanning roughly four Log 10 units. Cells were incubated with the compounds for 24-72 hours, at which point viability was quantified using CellTiter-Glo (Promega) or XTT (R&D Systems). The viability for treated cells was determined relative to untreated control cells. The log of the compound concentration vs. normalized mean viability was fit to a four parameters Hill function with variable slope. The bottom was constrained to be greater than zero. The X mean value for Y=50 was interpolated to determine the absolute IC50. The results in Table 1 indicate that many of the compounds are active in cells and can induce a dose dependent decrease in the viability of senescent A549 and IMR90 cells.
On the technique in general: In ATP-based viability assays light output follows the ATP content of the culture.

The subject of another test is senescent A549 cells. The experiment in a line: Senescence assay: viability of senescent A549 cells (CellTiter-Glo or XTT). It is filed as cell-based. To be noted: chemotherapy-induced senescent A549 cells, compounds incubated 24-72 hours, viability relative to untreated control, read-out: A549_SEN IC50 (Absolute IC50 average). The procedure: as §1

This is an account of results in US20250171435A1, “Carbon Linked BCL Inhibitors and Senolytic Compounds and Uses Thereof” (Rubedo Life Sciences, Inc., priority 2023, published 2025).

Each structure is given as a SMILES string. pIC50: −log10 of the molar value. Like-named read-outs stand apart in the source and are kept apart here.

Take `Cc1cc(C(=O)c2ccc(-c3cnn(CC45CC6(C)CC(C)(C4)CC(OCCO)(C6)C5)c3C)c(C(=O)O)n2)nnc1Nc1nc2ccccc2s1` [Compound 1, 6-(6-(benzo[d]thiazol-2-ylamino)-5-methylpyridazine-3-carbonyl)-3-(1-(((1r,3s,5R,7S)-3-(2-hydroxyethoxy)-5,7-dimethyladamantan-1-yl)methyl)-5-methyl-1H-pyrazol-4-yl)picolinic acid]: the results for the pIC50 in the test on senescent IMR90 cells and in the test with senescent A549 cells (Homo sapiens) were 6.00 to 7.00 and 5.00 to 6.00, respectively.

`Cc1cc(C(=O)c2ccc(-c3cnn(CC45CC6(C)CC(C)(C4)CC(OCCN4CCOCC4)(C6)C5)c3C)c(C(=O)O)n2)nnc1Nc1nc2ccccc2s1` [Compound 2, 6-(6-(benzo[d]thiazol-2-ylamino)-5-methylpyridazine-3-carbonyl)-3-(1-(((1r,3R,5S,7s)-3,5-dimethyl-7-(2-morpholinoethoxy)adamantan-1-yl)methyl)-5-methyl-1H-pyrazol-4-yl)picolinic acid]: the pIC50 in the test with senescent IMR90 cells and in the test with senescent A549 cells (Homo sapiens) was 7.00 to 8.00 in each case.

As for `Cc1cc(C(=O)c2nc(C(=O)O)c(CCCOc3ccc(C#CCN(C)C)cc3F)s2)nnc1Nc1nc2ccccc2s1` [Compound 3, 2-(6-(benzo[d]thiazol-2-ylamino)-5-methylpyridazine-3-carbonyl)-5-(3-(4-(3-(dimethylamino)prop-1-yn-1-yl)-2-fluorophenoxy)propyl) thiazole-4-carboxylic acid], the pIC50 is 5.00 to 6.00 in the test with senescent IMR90 cells and 6.00 to 7.00 in the test on senescent A549 cells (Homo sapiens).

As to `Cc1cc(C(=O)c2ccc(-c3cnn(CC45CC6(OCCN7CCOCC7)C[C@](C)(C4)C[C@](C)(C5)C6)c3C)c(C(=O)NS(=O)(=O)CCCCCC(=O)N[C@H](C(=O)N3C[C@H](O)C[C@H]3C(=O)N[C@@H](C)c3ccc(-c4scnc4C)cc3)C(C)(C)C)n2)nnc1Nc1nc2ccccc2s1` [Compound 4, (2S,4R)-1-[(2S)-2-[6-({6-[6-(1,3-benzothiazol-2-ylamino)-5-methylpyridazine-3-carbonyl]-3-(1-{[(1S,3R,5S,7R)-3,5-dimethyl-7-[2-(morpholin-4-yl)ethoxy]adamantan-1-yl]methyl}-5-methylpyrazol-4-yl)pyridin-2-yl}formamidosulfonyl)hexanamido]-3,3-dimethylbutanoyl]-4-hydroxy-N-[(1S)-1-[4-(4-methyl-1,3-thiazol-5-yl)phenyl]ethyl]pyrrolidine-2-carboxamide], the pIC50 in the test on senescent A549 cells is 6.00 to 7.00.

Consider `Cc1cc(C(=O)c2ccc(-c3cnn(CC45CC6(OCCN7CCOCC7)C[C@](C)(C4)C[C@](C)(C5)C6)c3C)c(C(=O)NS(=O)(=O)CCCCCC(=O)N[C@H](C(=O)N3C[C@@H](O)C[C@H]3C(=O)N[C@@H](C)c3ccc(-c4scnc4C)cc3)C(C)(C)C)n2)nnc1Nc1nc2ccccc2s1` [Compound 5, (2S,4S)-1-[(2S)-2-[6-({6-[6-(1,3-benzothiazol-2-ylamino)-5-methylpyridazine-3-carbonyl]-3-(1-{[(1S,3R,5S,7R)-3,5-dimethyl-7-[2-(morpholin-4-yl)ethoxy]adamantan-1-yl]methyl}-5-methylpyrazol-4-yl)pyridin-2-yl}formamidosulfonyl)hexanamido]-3,3-dimethylbutanoyl]-4-hydroxy-N-[(1S)-1-[4-(4-methyl-1,3-thiazol-5-yl)phenyl]ethyl]pyrrolidine-2-carboxamide], for which the pIC50 in the test with senescent A549 cells is 6.00 to 7.00.

With `C#Cc1ccc(CNC(=O)[C@@H]2C[C@H](O)CN2C(=O)[C@@H](NC(=O)CCCCCS(=O)(=O)NC(=O)c2nc(C(=O)c3cc(C)c(Nc4nc5ccccc5s4)nn3)ccc2-c2cnn(CC34CC5(C)CC(C)(C3)CC(OCCN3CCOCC3)(C5)C4)c2C)C(C)(C)C)cc1` [Compound 6, (2S,4R)-1-[(2S)-2-[6-({6-[6-(1,3-benzothiazol-2-ylamino)-5-methylpyridazine-3-carbonyl]-3-(1-{[(1S,3R,5S,7R)-3,5-dimethyl-7-[2-(morpholin-4-yl)ethoxy]adamantan-1-yl]methyl}-5-methylpyrazol-4-yl)pyridin-2-yl}formamidosulfonyl)hexanamido]-3,3-dimethylbutanoyl]-N-[(4-ethynylphenyl)methyl]-4-hydroxypyrrolidine-2-carboxamide], the negative logarithm of the IC50 (pIC50) with senescent A549 cells (Homo sapiens) was 7.00 to 8.00.

As to `Cc1cc(C(=O)c2ccc(-c3cnn(CC45CC6(C)CC(C)(C4)CC(OCCN4CCOCC4)(C6)C5)c3C)c(C(=O)NS(=O)(=O)c3ccc(N4CC(C(=O)N[C@H](C(=O)N5C[C@H](O)C[C@H]5C(=O)N[C@H](C)c5ccc(-c6scnc6C)cc5)C(C)(C)C)C4)cc3)n2)nnc1Nc1nc2ccccc2s1` [Compound 7, 6-[6-(1,3-benzothiazol-2-ylamino)-5-methylpyridazine-3-carbonyl]-3-(1-{[(1S,3R,5S,7R)-3,5-dimethyl-7-[2-(morpholin-4-yl)ethoxy]adamantan-1-yl]methyl}-5-methylpyrazol-4-yl)-N-[4-(3-{[(2S)-1-[(2S,4R)-4-hydroxy-2-{[(1S)-1-[4-(4-methyl-1,3-thiazol-5-yl)phenyl]ethyl]carbamoyl}pyrrolidin-1-yl]-3,3-dimethyl-1-oxobutan-2-yl]carbamoyl}azetidin-1-yl)benzenesulfonyl]pyridine-2-carboxamide], in the test with senescent A549 cells (Homo sapiens), the negative logarithm of the IC50 (pIC50) was 6.00 to 7.00.

The term pIC50 denotes the negative decadic logarithm of the IC50, by convention in mol/L.
